Assays:
Type in all cases: toxicity, cell-based
U2OS = assay: Incucyte cell viability with U2OS; conditions: human, 10 µM, compound concentration 10 uM
Fibroblast = assay: Incucyte cell viability with human fibroblast; conditions: 10 µM, compound concentration 10 uM
HEK-293T = assay: Incucyte cell viability with HEK293T; conditions: human, 10 µM, compound concentration 10 uM
Further: unitless GR value; below 1 slowed growth and below 0 cell loss.

SMILES | Growth Rate (U2OS; 12 h, replicate number 1) | Growth Rate (U2OS; 18 h, replicate number 1) | Growth Rate (U2OS; 24 h, replicate number 1) | Growth Rate (Fibroblast; 6 h, replicate number 1) | Growth Rate (HEK-293T; 0 h, replicate number 1) | Growth Rate (HEK-293T; 0 h, replicate number 2) | Growth Rate (HEK-293T; 6 h, replicate number 1) | Growth Rate (HEK-293T; 6 h, replicate number 2) | Growth Rate (HEK-293T; 12 h, replicate number 1) | Growth Rate (HEK-293T; 12 h, replicate number 2) | Growth Rate (HEK-293T; 18 h, replicate number 1) | Growth Rate (HEK-293T; 18 h, replicate number 2) | Growth Rate (HEK-293T; 24 h, replicate number 1) | Growth Rate (HEK-293T; 24 h, replicate number 2) | Growth Rate (Fibroblast; 0 h, replicate number 1) | Growth Rate (Fibroblast; 12 h, replicate number 2) | Growth Rate (Fibroblast; 18 h, replicate number 2) | Growth Rate (Fibroblast; 24 h, replicate number 2) | Growth Rate (Fibroblast; 0 h, replicate number 2) | Growth Rate (Fibroblast; 6 h, replicate number 2) | also measured
O=C1NCCSc2c1sc1ccc(O)cc21 | 0.56 | 0.33 | 0.37 | -0.69 | 0.04 | -0.36 | -0.48 | -0.51 | -0.4 | -0.26 | -0.14 | -0.06 | 0.15 | 0.12 | – | – | – | – | – | – | Growth Rate (U2OS; 0 h, replicate number 1): 0; Growth Rate (U2OS; 0 h, replicate number 2): -0.99; Growth Rate (U2OS; 12 h, replicate number 2): 0.36; Growth Rate (U2OS; 18 h, replicate number 2): 0.31; Growth Rate (U2OS; 24 h, replicate number 2): 0.18; Growth Rate (Fibroblast; 12 h, replicate number 1): -1
O=C(/N=c1\sccn1Cc1ccccc1)c1c[nH]c2ncccc12 | – | – | – | -1 | -0.78 | -0.86 | – | – | – | – | – | – | – | – | – | – | – | – | – | – | Growth Rate (U2OS; 0 h, replicate number 2): -0.96
CN1CCN(c2ccnc(NCCc3ccccc3)n2)CC1 [TP-040n] | 1 | 0.94 | – | – | – | – | 0.2 | 0.09 | 0.39 | 0.3 | 0.42 | 0.35 | 0.41 | 0.4 | -1 | 0.9 | 0.63 | 0.53 | – | – | Growth Rate (U2OS; 6 h, replicate number 2): -0.72; Growth Rate (U2OS; 18 h, replicate number 2): 0.96; Growth Rate (U2OS; 24 h, replicate number 2): 0.87; Growth Rate (Fibroblast; 12 h, replicate number 1): 0.8; Growth Rate (Fibroblast; 18 h, replicate number 1): 0.74; Growth Rate (Fibroblast; 24 h, replicate number 1): 0.58
COc1ccc(F)c(F)c1C(=O)c1cnc(NC2CCN(S(C)(=O)=O)CC2)nc1N [RG-547] | 0.73 | 0.18 | 0.06 | – | -1 | 0.15 | 0.16 | -0.37 | -0.1 | -0.5 | -0.15 | -0.47 | -0.13 | -0.37 | -1 | 0.53 | 0.28 | 0.15 | 0.02 | 0.62 | Growth Rate (U2OS; 0 h, replicate number 1): -1; Growth Rate (U2OS; 0 h, replicate number 2): 0.68; Growth Rate (U2OS; 6 h, replicate number 2): 0.23; Growth Rate (U2OS; 12 h, replicate number 2): 0.02; Growth Rate (U2OS; 18 h, replicate number 2): 0.02; Growth Rate (U2OS; 24 h, replicate number 2): -0.11; Growth Rate (Fibroblast; 18 h, replicate number 1): 0.96; Growth Rate (Fibroblast; 24 h, replicate number 1): 0.65
CC(C(=O)Nc1cc(C#N)ccc1CCCC(=O)O)c1ccc(F)c2ccccc12 (centres undefined) | 0.72 | 0.92 | 0.78 | – | 0.5 | 0.28 | – | – | – | – | – | – | – | – | – | – | – | 0.93 | -0.98 | – | Growth Rate (U2OS; 0 h, replicate number 1): 0; Growth Rate (U2OS; 6 h, replicate number 1): 0.47
COc1ccc(Cl)cc1[C@]1(F)C(=O)Nc2cc(C(F)(F)F)ccc21 [FLINDOKALNER] | 0.57 | 0.79 | 0.83 | -0.6 | 0.73 | – | 0.73 | 0.03 | 0.58 | 0.38 | 0.42 | 0.4 | 0.44 | 0.47 | – | 0.2 | 0.41 | 0.58 | – | -1 | Growth Rate (U2OS; 6 h, replicate number 2): 0.48; Growth Rate (U2OS; 12 h, replicate number 2): 0.76; Growth Rate (U2OS; 18 h, replicate number 2): 0.88; Growth Rate (U2OS; 24 h, replicate number 2): 0.95; Growth Rate (Fibroblast; 12 h, replicate number 1): -1
Nc1nc2cc(-c3cc(Cl)ccc3Oc3cc(F)c(S(=O)(=O)Nc4ncns4)cc3F)ccc2[nH]1 | 0.84 | 0.76 | 0.89 | -0.93 | 0.66 | 0.52 | – | – | – | – | – | – | – | – | – | – | – | 0.9 | -0.38 | – | Growth Rate (U2OS; 0 h, replicate number 1): -0.72; Growth Rate (U2OS; 0 h, replicate number 2): 0.2; Growth Rate (U2OS; 6 h, replicate number 1): 0.51; Growth Rate (Fibroblast; 24 h, replicate number 1): 0.45
CN1C(=O)c2ccccc2N(C)c2nc(Nc3cnn(C4CCNCC4)c3)ncc21 | 0.07 | 0.07 | 0.15 | – | – | – | -0.59 | -0.85 | -0.25 | -0.41 | 0.19 | -0.15 | 0.37 | 0.07 | -0.99 | 0.94 | 0.43 | 0.43 | -0.07 | – | Growth Rate (U2OS; 0 h, replicate number 2): 0.12; Growth Rate (U2OS; 6 h, replicate number 1): -0.35; Growth Rate (U2OS; 6 h, replicate number 2): 0.15; Growth Rate (U2OS; 12 h, replicate number 2): 0.18; Growth Rate (U2OS; 18 h, replicate number 2): 0.23; Growth Rate (U2OS; 24 h, replicate number 2): 0.24
CC(C)(O)c1cnc(N2C[C@@]3(CCC[C@](C)(Cn4cnc5ccc(C#N)cc54)C3)OC2=O)cn1 [GSK2798745] | – | – | – | – | – | – | -0.31 | 0.2 | 0.38 | 0.41 | 0.47 | 0.43 | 0.49 | 0.45 | 0.24 | -0.2 | 0.4 | 0.36 | – | -1 | Growth Rate (Fibroblast; 18 h, replicate number 1): -0.39
O=C(Nc1ccc(C(O)(C(F)(F)F)C(F)(F)F)cc1)c1ccc(C(F)(F)F)cc1 | – | – | – | 0.78 | – | -0.33 | -0.31 | 0.09 | -0.13 | 0.2 | 0.04 | 0.18 | 0.05 | 0.15 | – | 0.22 | 0.11 | 0.07 | – | -0.08 | Growth Rate (Fibroblast; 12 h, replicate number 1): 0.64; Growth Rate (Fibroblast; 18 h, replicate number 1): 0.52; Growth Rate (Fibroblast; 24 h, replicate number 1): 0.47
Cc1ccc(NC(=O)c2ccc(CN3CC[C@H](N(C)C)C3)c(C(F)(F)F)c2)cc1Nc1nccc(-c2cncnc2)n1 [BAFETINIB] | – | – | – | -0.23 | – | – | 0.57 | – | 0.67 | 0.68 | 0.96 | 0.99 | 0.97 | – | -1 | 0.02 | 0.39 | 0.54 | 0.2 | -0.55 | Growth Rate (Fibroblast; 12 h, replicate number 1): 0.05; Growth Rate (Fibroblast; 18 h, replicate number 1): 0.01; Growth Rate (Fibroblast; 24 h, replicate number 1): 0.14
CN[C@@H](C)C(=O)N[C@H](C(=O)N1CCC[C@H]1C(=O)Nc1sc(-c2ncco2)nc1-c1ccccc1)C1CCCCC1 [GDC-0917] | – | – | – | – | 0.71 | – | 0.6 | 0.98 | 0.93 | – | 0.86 | – | 0.92 | 0.99 | -1 | – | – | – | – | 0.6 | –
Cc1ncsc1-c1ccc(CNC(=O)[C@@H]2C[C@@H](O)CN2C(=O)[C@@H](NC(=O)C2(F)CC2)C(C)(C)C)c(OCCOc2ccc(CN3CCN(c4cc(-c5ccccc5O)nnc4N)CC3)cc2)c1 | – | – | – | – | -1 | – | – | – | – | – | – | – | – | – | – | – | – | – | -1 | – | –

— ChEMBL document CHEMBL5303304, “EUbOPEN Chemogenomics Library - IncuCyte” (2023)
